The record followed here is patent US4510139A, “Substituted aminobenzamides and their use as agents which inhibit lipoxygenase activity” (Sterling Drug Inc., priority 1984, dated 1985).

One test addresses T1, cyclooxygenase (Rattus norvegicus, UniProt Q63921).
T1 construct: microsomal fraction containing lipoxygenase and cyclooxygenase; endogenous in cells; host or cells: RBL-1 (rat basophilic leukemia) cells, homogenate / microsomal fraction
T1 sequence (Q63921 27-602): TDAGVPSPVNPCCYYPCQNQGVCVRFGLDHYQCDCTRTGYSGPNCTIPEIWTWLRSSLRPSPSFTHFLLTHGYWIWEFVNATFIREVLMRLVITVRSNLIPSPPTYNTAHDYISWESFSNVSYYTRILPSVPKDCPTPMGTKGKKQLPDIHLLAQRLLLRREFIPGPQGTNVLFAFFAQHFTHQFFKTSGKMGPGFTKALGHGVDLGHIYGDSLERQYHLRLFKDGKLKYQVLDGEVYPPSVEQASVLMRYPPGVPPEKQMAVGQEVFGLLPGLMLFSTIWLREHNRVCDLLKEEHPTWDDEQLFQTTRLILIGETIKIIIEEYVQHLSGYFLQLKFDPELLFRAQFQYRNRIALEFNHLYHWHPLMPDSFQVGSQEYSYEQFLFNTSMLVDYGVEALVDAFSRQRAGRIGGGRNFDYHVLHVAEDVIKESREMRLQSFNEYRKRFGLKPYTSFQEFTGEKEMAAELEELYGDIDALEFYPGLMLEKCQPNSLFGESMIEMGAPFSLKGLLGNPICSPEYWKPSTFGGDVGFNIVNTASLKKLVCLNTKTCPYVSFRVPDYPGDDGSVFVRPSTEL
The test is described as follows: Inhibition of cyclooxygenase derived from rat basophilic leukemia (RBL-1) cells, product C1 (PGD2). The class given is biochemical. The conditions noted are these: for inhibition at 1 µM: dose of 1 μM. As to the method:
(§1) The primary screening test used is a determination of the inhibition of lipoxygenase and cyclooxygenase derived from rat basophilic leukemia (RBL-1) cells. The test was carried out according to the following procedure:
(§2) Single cell suspensions of RBL-1 cells are homogenized to obtain the microsomal fraction containing lipoxygenase and cyclooxygenase. Test compounds are added to the enzyme-containing homogenate for a 5 min preincubation period at 37° C. prior to the addition of ^14 C-arachidonic acid substrate. Following incubation at 37° C. for 15 min, the reaction is stopped by the addition of 2M formic acid and the enzyme-substrate products are extracted into chloroform. An aliquot of the extract is evaporated to dryness, reconstituted in ether to 1/10 original volume, spotted in thin layer chromatography plates and chromatographed. The peak areas of radioactivity representing the products are located by scanning the plates. The quantity of products formed is estimated by measuring the height of the radioactivity peaks observed on the chromatographic scans. Alternatively, the areas of radioactivity are scraped from the plate and the ^14 C quantitated by scintillation counting.

The target of a further test is T2, lipoxygenase (Rattus norvegicus, UniProt P12527).
T2 construct: microsomal fraction containing lipoxygenase and cyclooxygenase; endogenous in cells; host or cells: RBL-1 (rat basophilic leukemia) cells, homogenate / microsomal fraction
T2 sequence (P12527 1-673): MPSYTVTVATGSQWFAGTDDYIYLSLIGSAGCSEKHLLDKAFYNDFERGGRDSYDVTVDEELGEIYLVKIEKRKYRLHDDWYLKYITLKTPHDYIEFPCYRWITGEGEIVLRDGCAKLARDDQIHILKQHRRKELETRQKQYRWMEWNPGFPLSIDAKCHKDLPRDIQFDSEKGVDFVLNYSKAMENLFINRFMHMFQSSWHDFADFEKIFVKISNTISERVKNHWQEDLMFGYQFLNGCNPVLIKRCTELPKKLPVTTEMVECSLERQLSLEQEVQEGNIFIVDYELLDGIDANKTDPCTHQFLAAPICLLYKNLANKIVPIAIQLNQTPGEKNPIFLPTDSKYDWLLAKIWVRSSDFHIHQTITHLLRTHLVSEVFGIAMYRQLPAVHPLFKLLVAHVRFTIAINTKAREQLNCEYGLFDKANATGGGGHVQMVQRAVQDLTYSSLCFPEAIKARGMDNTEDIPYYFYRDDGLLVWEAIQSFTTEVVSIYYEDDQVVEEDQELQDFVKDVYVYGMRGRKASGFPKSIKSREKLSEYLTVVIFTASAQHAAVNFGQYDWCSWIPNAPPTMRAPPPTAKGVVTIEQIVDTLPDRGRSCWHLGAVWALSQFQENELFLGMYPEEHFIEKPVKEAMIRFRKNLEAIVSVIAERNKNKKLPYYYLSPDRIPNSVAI
The test is described as follows: Inhibition of lipoxygenase derived from rat basophilic leukemia (RBL-1) cells, products L1 (5,12-di-HETE) and L2 (5-HETE). The class given is biochemical. The following applies: for inhibition at 10 µM: dose of 10 μM. On the procedure:
as §1, §2

[1] abbreviates: read-out: % Inhibition of cyclooxygenase (C1) formation.
[2] abbreviates: read-out: % Inhibition of lipoxygenase (L1) formation.
[3] abbreviates: read-out: % Inhibition of lipoxygenase (L2) formation.
Setting [4] is: dose of 1 μM, L1 = 5,12-di-HETE, read-out: % Inhibition of lipoxygenase (L1) formation.
The mark [5] stands for this setting: dose of 1 μM, L2 = 5-HETE, read-out: % Inhibition of lipoxygenase (L2) formation.

Like-named read-outs stand apart in the source and are kept apart here.

In the case of `O=C1C=CC(=Nc2ccccc2C(=O)N2CCCCC2)C=C1` [Example 2, 1-{2-[(4-Oxo-2,5-cyclohexadien-1-ylidene)amino]benzoyl}piperidine], the IC50 was over 1 µM at cyclooxygenase; 0.45 µM on lipoxygenase (IC50 L1, L1 = 5,12-di-HETE); 0.13 µM against lipoxygenase (IC50 L2, L2 = 5-HETE). Besides, the inhibition at 1 µM on cyclooxygenase (setting [1]) was found to be 0%; on lipoxygenase (setting [2]), 68%; at lipoxygenase (setting [3]) it was 82%.

In the case of `NC(=O)c1ccccc1Nc1ccc(O)cc1` [Example 3(b), 2-(4-Hydroxyphenylamino)benzamide], the half-maximal inhibitory concentration (IC50) at cyclooxygenase is over 1 µM; against lipoxygenase (IC50 L1, L1 = 5,12-di-HETE), 0.31 µM; against lipoxygenase (IC50 L2, L2 = 5-HETE) it was 0.15 µM. Further, the inhibition at 1 µM at cyclooxygenase (setting [1]) came to 14%; at lipoxygenase (setting [2]), 78%; on lipoxygenase (setting [3]), 83%.

As to `O=C(c1ccccc1Nc1ccc(O)cc1)N1CCCC1` [Example 4(b), 1-[2-(4-Hydroxyphenylamino)benzoyl]pyrrolidine], the inhibition at 1 µM at cyclooxygenase (setting [1]) came out at 0%; on lipoxygenase (setting [4]) it was 41%; at lipoxygenase (setting [5]) it was 52%.

Turning to `CCCNC(=O)c1ccccc1Nc1ccc(O)cc1` [Example 5(b), 2-(4-Hydroxyphenylamino)-N-propylbenzamide], the IC50 against cyclooxygenase was over 1 µM; against lipoxygenase (IC50 L1, L1 = 5,12-di-HETE), 0.13 µM; against lipoxygenase (IC50 L2, L2 = 5-HETE), 0.11 µM. Moreover, the inhibition at 1 µM on cyclooxygenase (setting [1]) was determined as 6%; at lipoxygenase (setting [2]), 62%; on lipoxygenase (setting [3]), 85%.

On to `CC1CCN(C(=O)c2ccccc2Nc2ccc(O)cc2)CC1` [Example 6(b), 1-[2-(4-Hydroxyphenylamino)benzoyl]-4-methylpiperidine], for which the inhibition at 1 µM worked out at 7% at cyclooxygenase (setting [1]), 54% on lipoxygenase (setting [4]) and 77% on lipoxygenase (setting [5]).

Regarding `CNC(=O)c1ccccc1Nc1ccc(O)cc1` [Example 7(b), 2-(4-Hydroxyphenylamino)-N-methylbenzamide], the inhibition at 1 µM at cyclooxygenase (setting [1]) is 2%; on lipoxygenase (setting [4]), 23%; at lipoxygenase (setting [5]) it was 48%.

Regarding `CCN(CC)C(=O)c1ccccc1Nc1ccc(O)cc1` [Example 8(b), N,N-Diethyl-2-(4-hydroxyphenylamino)benzamide], the inhibition at 1 µM at cyclooxygenase (setting [1]) was determined as 0%; at lipoxygenase (setting [4]), 33%; on lipoxygenase (setting [5]) it was 63%.

`CC(C)NC(=O)c1ccccc1Nc1ccc(O)cc1` [Example 9(b), 2-(4-Hydroxyphenylamino)-N-isopropylbenzamide]: the inhibition at 1 µM was found to be 0% on cyclooxygenase (setting [1]), 72% on lipoxygenase (setting [4]) and 78% on lipoxygenase (setting [5]).

Regarding `CN(C)C(=O)c1ccccc1Nc1ccc(O)cc1` [Example 10(b), 2-(4-Hydroxyphenylamino)-N,N-dimethylbenzamide], the values for the inhibition at 1 µM at cyclooxygenase (setting [1]), on lipoxygenase (setting [4]) and at lipoxygenase (setting [5]) were 1%, 34% and 56%, respectively.

As to `O=C(NC1CCCCC1)c1ccccc1Nc1ccc(O)cc1` [Example 12(b), N-Cyclohexyl-2-(4-hydroxyphenylamino)benzamide], the IC50 at cyclooxygenase is over 1 µM; at lipoxygenase (IC50 L1, L1 = 5,12-di-HETE), 0.12 µM; at lipoxygenase (IC50 L2, L2 = 5-HETE), 0.11 µM. Also, the inhibition at 1 µM on cyclooxygenase (setting [1]) was determined as 0%; at lipoxygenase (setting [2]) it was 80%; at lipoxygenase (setting [3]), 94%.

Regarding `CCN(C)C(=O)c1ccccc1Nc1ccc(O)cc1` [Example 13(b), 2-(4-Hydroxyphenylamino)-N-ethyl-N-methylbenzamide], the inhibition at 1 µM was 0% at cyclooxygenase (setting [1]), 66% on lipoxygenase (setting [4]) and 77% at lipoxygenase (setting [5]).

Regarding `CCCN(CC)C(=O)c1ccccc1Nc1ccc(O)cc1` [Example 14(b), 2-(4-Hydroxyphenylamino)-N-ethyl-N-propylbenzamide], the 50% inhibitory concentration (IC50) is over 1 µM on cyclooxygenase; 0.18 µM on lipoxygenase (IC50 L1, L1 = 5,12-di-HETE); 0.11 µM against lipoxygenase (IC50 L2, L2 = 5-HETE). Besides, the inhibition at 1 µM amounted to 0% at cyclooxygenase (setting [1]), 78% on lipoxygenase (setting [2]) and 95% at lipoxygenase (setting [3]).

For the compound `O=C(c1ccccc1Nc1ccccc1O)N1CCCCC1` [Example 15(d), 1-[2-(2-Hydroxyphenylamino)benzoyl]piperidine], the half-maximal inhibitory concentration (IC50) at cyclooxygenase was over 1 µM; against lipoxygenase (IC50 L1, L1 = 5,12-di-HETE), 0.72 µM; against lipoxygenase (IC50 L2, L2 = 5-HETE) it was 0.18 µM. The inhibition at 1 µM at cyclooxygenase (setting [1]) worked out at 2%; on lipoxygenase (setting [2]), 58%; on lipoxygenase (setting [3]) it was 80%.

Turning to `O=C(c1ccccc1Nc1ccc(O)cc1)N1CCOCC1` [Example 16(c), 4-[2-(4-Hydroxyphenylamino)benzoyl]morpholine], the inhibition at 1 µM on cyclooxygenase (setting [1]) was 1%; at lipoxygenase (setting [4]) it was 37%; at lipoxygenase (setting [5]), 42%.

For `CCN(CC)C(=O)c1cc(Cl)ccc1Nc1ccc(O)cc1` [Example 17(d), 5-Chloro-N,N-diethyl-2-(4-hydroxyphenylamino)benzamide], the inhibition at 1 µM stood at 0% at cyclooxygenase (setting [1]), 56% at lipoxygenase (setting [4]) and 73% on lipoxygenase (setting [5]).

With `O=C(c1cc(Cl)ccc1Nc1ccc(O)cc1)N1CCCCC1` [Example 18(b), 1-[5-Chloro-2-(4-hydroxyphenylamino)benzoyl]piperidine], the inhibition at 1 µM on cyclooxygenase (setting [1]) is 16%; on lipoxygenase (setting [4]), 63%; on lipoxygenase (setting [5]), 75%.

For `O=C(c1ccc(Cl)cc1Nc1ccc(O)cc1)N1CCCC1` [Example 19(d), 1-[4-Chloro-2-(4-hydroxyphenylamino)benzoyl]pyrrolidine], the inhibition at 1 µM at cyclooxygenase (setting [1]) turned out to be 7%; at lipoxygenase (setting [4]), 24%; at lipoxygenase (setting [5]) it was 42%.

Regarding `O=C(c1ccc(Cl)cc1Nc1ccc(O)cc1)N1CCCCC1` [Example 20(b), 1-[4-Chloro-2-(4-hydroxyphenylamino)benzoyl]piperidine], the inhibition at 1 µM on cyclooxygenase (setting [1]) is 12%; on lipoxygenase (setting [4]) it was 32%; on lipoxygenase (setting [5]), 44%.

With `CNC(=O)c1ccc(Cl)cc1Nc1ccc(O)cc1` [Example 21(b), 4-Chloro-2-(4-hydroxyphenylamino)-N-methylbenzamide], the 50% inhibitory concentration (IC50) is over 1 µM against cyclooxygenase; 0.36 µM at lipoxygenase (IC50 L1, L1 = 5,12-di-HETE); 0.18 µM against lipoxygenase (IC50 L2, L2 = 5-HETE).

`COc1ccc(Nc2ccc(O)cc2)c(C(=O)NCc2ccccc2)c1` [Example 22(d), 2-(4-Hydroxyphenylamino)-N-benzyl-5-methoxybenzamide]: the half-maximal inhibitory concentration (IC50) at cyclooxygenase was over 1 µM; on lipoxygenase (IC50 L1, L1 = 5,12-di-HETE) it was 0.3 µM; against lipoxygenase (IC50 L2, L2 = 5-HETE), 0.26 µM. Also, the inhibition at 1 µM on cyclooxygenase (setting [1]) is 0%; on lipoxygenase (setting [2]), 81%; on lipoxygenase (setting [3]), 97%.

For the compound `COc1ccc(Nc2ccc(O)cc2)c(C(=O)N2CCCCC2)c1` [Example 23(b), 1-[2-(4-Hydroxyphenylamino)-5-methoxybenzoyl]piperidine], the IC50 on cyclooxygenase is over 1 µM; at lipoxygenase (IC50 L1, L1 = 5,12-di-HETE) it was 0.54 µM; at lipoxygenase (IC50 L2, L2 = 5-HETE) it was 0.61 µM. In addition, the values for the inhibition at 1 µM on cyclooxygenase (setting [1]), at lipoxygenase (setting [2]) and at lipoxygenase (setting [3]) were 19%, 89% and 96%, respectively.

For `O=C(c1ccccc1Nc1cccc(O)c1)N1CCCCC1` [Example 24(d), 1-[2-(3-Hydroxyphenylamino)benzoyl]piperidine], the inhibition at 10 µM worked out at 42% at cyclooxygenase (dose of 10 μM, read-out: % Inhibition of cyclooxygenase (C1) formation); 47% on lipoxygenase (L1 = 5,12-di-HETE, read-out: % Inhibition of lipoxygenase (L1) formation); 56% on lipoxygenase (L2 = 5-HETE, read-out: % Inhibition of lipoxygenase (L2) formation).

By IC50 is commonly meant the point on the concentration scale where inhibition reaches its midpoint. A high value points to a need for much substance. For orientation: inhibition means the share of the control response that was lost under treatment.
